From US10214519B2, “Phosphatidylinositol 3-kinase inhibitors” (Gilead Sciences, Inc., priority 2016, dated 2019)

biological target: PI3Kβ (Homo sapiens (Human), UniProt P42338); assay: PI3K isoform TR-FRET enzymatic assay (PI3Kβ); assay type: biochemical; conditions: 2× Km ATP, 30 minutes at 25° C.
How it was run: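 IC50 came from four-parameter dose-response fits, normalized between DMSO and 1 μM wortmannin controls. The read-out was TR-FRET (615/665 nm) of PIP3 displacing fluorescent PIP3 from Europium GRP-1 after 10 mM EDTA termination. Compounds were incubated with purified heterodimeric PI3Kβ for 30 min at 25° C.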

Chain of PI3Kβ (P42338 whole entry, canonical isoform): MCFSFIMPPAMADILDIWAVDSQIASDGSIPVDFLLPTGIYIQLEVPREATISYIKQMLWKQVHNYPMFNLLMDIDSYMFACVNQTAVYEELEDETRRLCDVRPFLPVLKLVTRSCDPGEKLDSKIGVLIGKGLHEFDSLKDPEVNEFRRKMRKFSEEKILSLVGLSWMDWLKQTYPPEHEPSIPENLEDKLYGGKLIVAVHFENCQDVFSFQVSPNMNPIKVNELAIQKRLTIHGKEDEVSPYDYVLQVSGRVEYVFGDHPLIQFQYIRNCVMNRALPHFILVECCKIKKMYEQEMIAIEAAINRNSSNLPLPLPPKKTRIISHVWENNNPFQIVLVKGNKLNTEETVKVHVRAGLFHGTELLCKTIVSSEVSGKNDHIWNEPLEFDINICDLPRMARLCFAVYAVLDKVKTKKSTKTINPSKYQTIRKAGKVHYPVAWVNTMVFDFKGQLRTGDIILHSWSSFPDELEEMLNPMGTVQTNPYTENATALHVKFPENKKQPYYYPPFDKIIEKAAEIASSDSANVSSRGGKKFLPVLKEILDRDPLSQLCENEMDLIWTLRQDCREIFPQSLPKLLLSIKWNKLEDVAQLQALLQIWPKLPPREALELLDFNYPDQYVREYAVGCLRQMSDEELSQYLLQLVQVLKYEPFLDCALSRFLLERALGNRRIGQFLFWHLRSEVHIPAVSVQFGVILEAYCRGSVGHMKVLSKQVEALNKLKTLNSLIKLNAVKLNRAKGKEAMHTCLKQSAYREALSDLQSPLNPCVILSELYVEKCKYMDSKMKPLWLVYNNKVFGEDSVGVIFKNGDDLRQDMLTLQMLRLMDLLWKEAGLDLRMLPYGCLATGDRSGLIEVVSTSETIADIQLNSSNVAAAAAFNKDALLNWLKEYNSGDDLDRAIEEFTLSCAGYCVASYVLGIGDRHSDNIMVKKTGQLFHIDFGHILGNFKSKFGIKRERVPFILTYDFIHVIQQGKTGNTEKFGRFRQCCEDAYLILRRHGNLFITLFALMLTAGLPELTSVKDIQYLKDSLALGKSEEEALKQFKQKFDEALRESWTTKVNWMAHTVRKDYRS
Chain of PI3Kβ (P27986 whole entry partner, canonical isoform): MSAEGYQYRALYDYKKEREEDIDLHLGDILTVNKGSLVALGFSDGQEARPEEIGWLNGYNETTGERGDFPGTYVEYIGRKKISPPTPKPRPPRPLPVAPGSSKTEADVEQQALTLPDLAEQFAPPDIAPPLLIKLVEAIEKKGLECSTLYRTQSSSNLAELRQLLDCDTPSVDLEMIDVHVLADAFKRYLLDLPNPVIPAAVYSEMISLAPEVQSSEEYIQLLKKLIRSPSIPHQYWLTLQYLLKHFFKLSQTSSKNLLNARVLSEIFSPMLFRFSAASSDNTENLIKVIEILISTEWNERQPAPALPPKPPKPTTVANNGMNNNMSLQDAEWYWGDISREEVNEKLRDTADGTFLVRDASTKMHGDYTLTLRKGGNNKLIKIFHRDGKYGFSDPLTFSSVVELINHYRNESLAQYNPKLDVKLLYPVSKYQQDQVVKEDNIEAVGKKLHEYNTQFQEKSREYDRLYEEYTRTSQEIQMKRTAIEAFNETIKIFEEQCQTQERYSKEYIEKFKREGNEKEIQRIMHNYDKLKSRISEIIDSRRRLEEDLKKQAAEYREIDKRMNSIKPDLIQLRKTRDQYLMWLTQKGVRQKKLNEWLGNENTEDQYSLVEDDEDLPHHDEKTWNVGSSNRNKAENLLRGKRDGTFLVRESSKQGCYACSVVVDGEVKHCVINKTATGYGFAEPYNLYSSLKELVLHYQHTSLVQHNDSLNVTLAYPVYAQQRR

Row | Structure (SMILES) | IC50 [nM]
1 | CCCc1nc2c(-c3cnc(Cl)[nH]3)cc(N3CCOCC3)cc2n1-c1ccnc2c(Cl)cc(F)cc12 [Example 303, 4-[3-(8-chloro-6-fluoroquinolin-4-yl)-7-(2-chloro-1H-imidazol-5-yl)-2-propylbenzimidazol-5-yl]morpholine] | 21
2 | Fc1cccc2c(-n3c(CC4CC4)nc4c(-c5cnc(Cl)[nH]5)cc(N5CCOCC5)cc43)ccnc12 [Example 304, 4-[7-(2-chloro-1H-imidazol-5-yl)-2-(cyclopropylmethyl)-3-(8-fluoroquinolin-4-yl)benzimidazol-5-yl]morpholine] | 81
3 | CCCc1nc2c(-c3cnc(Cl)[nH]3)cc(N3CCOCC3)cc2n1-c1ccnc2c(F)cccc12 [Example 305, 4-[7-(2-chloro-1H-imidazol-5-yl)-3-(8-fluoroquinolin-4-yl)-2-propylbenzimidazol-5-yl]morpholine] | 13
4 | Cc1nc2c(-c3cnc(Cl)[nH]3)cc(N3CCOCC3)cc2n1-c1ccnc2ccccc12 [Example 306, 4-[7-(2-chloro-1H-imidazol-5-yl)-2-methyl-3-quinolin-4-ylbenzimidazol-5-yl]morpholine] | 370
5 | Fc1ccc(Cl)c2nccc(-n3c(C4CC4)nc4c(-c5cnc(Cl)[nH]5)cc(N5CCOCC5)cc43)c12 [Example 307, 4-[3-(8-chloro-5-fluoroquinolin-4-yl)-7-(2-chloro-1H-imidazol-5-yl)-2-cyclopropylbenzimidazol-5-yl]morpholine] | 8
6 | Fc1ccc(F)c2c(-n3cnc4c(-c5cnc(Cl)[nH]5)cc(N5CCOCC5)cc43)ccnc12 [Example 308, 4-[7-(2-chloro-1H-imidazol-5-yl)-3-(5,8-difluoroquinolin-4-yl)benzimidazol-5-yl]morpholine] | 6
7 | Cc1nc2c(-c3cnc(Cl)[nH]3)cc(N3CCOCC3)cc2n1-c1ccnc2c(F)ccc(Cl)c12 [Example 309, 4-[3-(5-chloro-8-fluoroquinolin-4-yl)-7-(2-chloro-1H-imidazol-5-yl)-2-methylbenzimidazol-5-yl]morpholine] | 50
8 | CCc1nc2c(-c3cnc(Cl)[nH]3)cc(N3CCOCC3)cc2n1-c1ccnc2c(F)ccc(Cl)c12 [Example 310, 4-[3-(5-chloro-8-fluoroquinolin-4-yl)-7-(2-chloro-1H-imidazol-5-yl)-2-ethylbenzimidazol-5-yl]morpholine] | 36
9 | Cc1nc2c(-c3ccccc3)cc(N3CCOCC3)cc2n1-c1ccnc2c(Cl)cccc12 [Example 311, 4-(1-(8-chloroquinolin-4-yl)-2-methyl-4-phenyl-1H-benzo[d]imidazol-6-yl)morpholine] | 47
10 | Cc1nc2c(-c3ccccc3)cc(N3CCOCC3)cc2n1-c1ccnc2c(-c3ccccc3)cccc12 [Example 312, 4-(2-methyl-4-phenyl-1-(8-phenylquinolin-4-yl)-1H-benzo[d]imidazol-6-yl)morpholine] | 967
11 | Cc1nc2c(-c3cnn(C)c3)cc(N3CCOCC3)cc2n1-c1ccnc2c(Cl)cccc12 [Example 313, 4-(1-(8-chloroquinolin-4-yl)-2-methyl-4-(1-methyl-1H-pyrazol-4-yl)-1H-benzo[d]imidazol-6-yl)morpholine] | 9800
12 | Cc1nc2c(-c3ccnnc3)cc(N3CCOCC3)cc2n1-c1ccnc2c(Cl)cccc12 [Example 314, 4-(1-(8-chloroquinolin-4-yl)-2-methyl-4-(pyridazin-4-yl)-1H-benzo[d]imidazol-6-yl)morpholine] | 7800
13 | Cc1nc2c(-c3cncnc3)cc(N3CCOCC3)cc2n1-c1ccnc2c(Cl)cccc12 [Example 315, 4-(1-(8-chloroquinolin-4-yl)-2-methyl-4-(pyrimidin-5-yl)-1H-benzo[d]imidazol-6-yl)morpholine] | 490
14 | Cc1nc2c(-c3cccc(N(C)C)c3)cc(N3CCOCC3)cc2n1-c1ccnc2c(Cl)cccc12 [Example 316, 3-(1-(8-chloroquinolin-4-yl)-2-methyl-6-morpholino-1H-benzo[d]imidazol-4-yl)-N,N-dimethylaniline] | 2500
